Columns and labels:
DGKζ = DGKζ (Homo sapiens (Human), UniProt Q13574); assay: Biochemical DGK IC50 assay (ADP-Glo, lipid micelle substrate), DGKζ; conditions: full length DGKζ 0.5 nM, ATP 140 μM, DAG 80 μM
Protocol: (§1) Enzymatic reactions of DGKζ, DGKα and DGKδ were performed using ADP-Glo assay with lipid micelle substrate. […] Full length DGKα (D21-10BG, SignalChem) and full length DGKδ (D23-10G, SignalChem) were purchased. Lipid micelle was prepared by dissolving DAG (Sigma, 317505-10MG) and PS (Sigma, P7769-100MG) with chloroform which was furtherly removed by rotary evaporation. The resulted product was resuspended in buffer containing 25 mM HEPES pH 7.0, 0.5 mM EDTA and 160 mM Octyl β-D glucopyranoside by vigorous mixing and ultrasonic (IID, Scientz).
(§2) The inhibition activities testing for the compound disclosed herein were carried out at room temperature in assay buffer containing 50 mM HEPES, 10 mM MgCl2, 0.01% BSA, 0.1 mM Na3VO4, 0.005% Tween-20 and 0.01 mM CaCl2. Compounds in DMSO were dispensed into wells of a black 384 well plate (Corning 4514) using D300e digital dispenser (Tecan). […] 3 μL 2× enzyme solution was added to wells. […] After 1 hour reaction, 5 μL ADP-Glo reagent (Promga V9101) was added and incubated for 40 minutes. 10 μL Kinase Detection reagent was added and incubated for 30 minutes. Luminescence was measured on a microplate reader (PHERAstar FSX, BMG labtech). The IC50s are calculated based on inhibition of enzyme activity in the presence of increasing concentrations of compounds.
Human His-TEV-DGK-zeta-pFastBac1 and human baculovirus samples was generated using the Bac-to-Bac baculovirus expression system (Invitrogen) according to the manufacturer's protocol. The DNA used for expression of DGK-zeta, have SEQ ID Nos: 1. Baculovirus amplification was achieved using infected SF9 cells at 1:2000 virus/cells ratios, and grown for 96 hours at 27° C. post-transfected.
Full length human DGKζ produced as described above, was purified from Sf9 baculovirus-infected insect cell paste. The cells were lysed using sonication method, and the lysates were clarified by centrifugation.

DGKα = DGKα (Homo sapiens (Human), UniProt P23743); assay: Biochemical DGK IC50 assay (ADP-Glo, lipid micelle substrate), DGKα; conditions: full length DGKα […], ATP 140 μM, DAG 80 μM; note: full length DGKα 7.5 nM
DGKα, sequence (P23743 whole entry): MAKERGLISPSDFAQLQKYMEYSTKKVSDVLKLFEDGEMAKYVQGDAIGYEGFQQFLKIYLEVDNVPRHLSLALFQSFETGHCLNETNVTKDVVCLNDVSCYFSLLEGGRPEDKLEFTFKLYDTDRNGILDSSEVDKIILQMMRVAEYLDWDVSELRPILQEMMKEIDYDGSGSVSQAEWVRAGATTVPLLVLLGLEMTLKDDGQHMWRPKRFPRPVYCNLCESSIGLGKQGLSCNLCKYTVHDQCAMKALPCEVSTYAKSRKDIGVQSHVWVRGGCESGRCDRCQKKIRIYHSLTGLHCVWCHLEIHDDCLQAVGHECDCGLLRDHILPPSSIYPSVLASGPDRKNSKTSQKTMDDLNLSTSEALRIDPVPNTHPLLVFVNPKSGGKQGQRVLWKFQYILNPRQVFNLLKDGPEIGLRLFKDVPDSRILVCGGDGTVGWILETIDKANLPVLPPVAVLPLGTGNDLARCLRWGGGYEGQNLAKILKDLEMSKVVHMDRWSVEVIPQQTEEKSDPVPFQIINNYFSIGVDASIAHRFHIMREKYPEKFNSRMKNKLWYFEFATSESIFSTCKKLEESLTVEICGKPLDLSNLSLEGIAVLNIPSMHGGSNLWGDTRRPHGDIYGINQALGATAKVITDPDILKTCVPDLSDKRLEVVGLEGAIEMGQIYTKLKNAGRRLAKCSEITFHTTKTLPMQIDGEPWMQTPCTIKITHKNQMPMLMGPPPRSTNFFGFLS
Protocol: as §1, §2

DGKζ, sequence (Q13574 other isoform, or with tags, fused parts or gaps): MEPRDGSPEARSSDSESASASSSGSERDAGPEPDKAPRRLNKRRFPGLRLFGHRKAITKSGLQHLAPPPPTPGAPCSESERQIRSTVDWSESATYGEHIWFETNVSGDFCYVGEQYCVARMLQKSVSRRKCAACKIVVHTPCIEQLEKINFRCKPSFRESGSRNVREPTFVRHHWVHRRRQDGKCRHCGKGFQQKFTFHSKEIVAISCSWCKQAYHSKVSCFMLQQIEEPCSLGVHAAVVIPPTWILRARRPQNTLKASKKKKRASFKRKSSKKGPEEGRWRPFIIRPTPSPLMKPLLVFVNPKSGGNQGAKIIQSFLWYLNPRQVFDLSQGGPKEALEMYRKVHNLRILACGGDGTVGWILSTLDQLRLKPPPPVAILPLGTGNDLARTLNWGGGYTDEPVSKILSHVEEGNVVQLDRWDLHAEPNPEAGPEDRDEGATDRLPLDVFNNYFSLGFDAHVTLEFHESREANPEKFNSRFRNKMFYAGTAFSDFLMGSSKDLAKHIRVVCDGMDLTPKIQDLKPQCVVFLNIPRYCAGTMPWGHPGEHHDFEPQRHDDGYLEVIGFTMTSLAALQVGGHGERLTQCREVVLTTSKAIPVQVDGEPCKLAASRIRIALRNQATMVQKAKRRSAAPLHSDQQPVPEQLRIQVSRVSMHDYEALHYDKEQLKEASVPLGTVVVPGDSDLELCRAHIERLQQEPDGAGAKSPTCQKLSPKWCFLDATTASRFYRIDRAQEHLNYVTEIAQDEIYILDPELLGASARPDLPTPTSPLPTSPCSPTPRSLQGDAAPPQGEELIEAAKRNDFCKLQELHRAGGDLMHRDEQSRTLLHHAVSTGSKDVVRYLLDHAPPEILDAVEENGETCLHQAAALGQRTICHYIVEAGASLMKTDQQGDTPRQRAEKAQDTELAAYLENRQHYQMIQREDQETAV

IC50 (DGKζ) | IC50 (DGKα) | Structure (SMILES)
50 nM | 3120 nM | CC(c1ccc2nccnc2c1)N1C[C@H](C)N(c2cc(=O)n(C)c3cc(CC#N)nn23)C[C@H]1C (mixture of isomers) [Compound A2, 2-(7-((2S,5R)-2,5-dimethyl-4-(1-(quinoxalin-6-yl)ethyl)piperazin-1-yl)-4-methyl-5-oxo-4,5-dihydropyrazolo[1,5-a]pyrimidin-2-yl)acetonitrile]
1710 nM | > 10000 nM | CC(c1ccc2nccnc2c1)N1C[C@H](C)N(c2cc(=O)n(C)c3cc(CC#N)nn23)C[C@H]1C (single isomer, unassigned) [Compound A2a]
32 nM | 6050 nM | CC(c1ccc2nccnc2c1)N1C[C@H](C)N(c2cc(=O)n(C)c3cc(CC#N)nn23)C[C@H]1C (single isomer, unassigned) [Compound A2b]
153 nM | 64900 nM | CC[C@@H]1CN(c2cc(=O)[nH]c3cc(CC#N)nn23)[C@@H](C)CN1C(C)c1ccc2nccnc2c1 (single isomer, unassigned) [Compound A4a]
7390 nM | > 10000 nM | CC[C@@H]1CN(c2cc(=O)[nH]c3cc(CC#N)nn23)[C@@H](C)CN1C(C)c1ccc2nccnc2c1 (single isomer, unassigned) [Compound A4b]
11 nM | 12500 nM | CC(c1ccc2c(c1)OC(C)(C)CO2)N1C[C@H](C)N(c2c(C#N)c(=O)n(C)c3cc(CC#N)nn23)C[C@H]1C (single isomer, unassigned) [Compound A12a]
1150 nM | 10400 nM | CC(c1ccc2c(c1)OC(C)(C)CO2)N1C[C@H](C)N(c2c(C#N)c(=O)n(C)c3cc(CC#N)nn23)C[C@H]1C (single isomer, unassigned) [Compound A12b]
3870 nM | 2670 nM | CC[C@@H]1CN(c2c(F)c(=O)n(C)c3cc(CC#N)nn23)[C@@H](C)CN1C(C)c1ccc(C2CC2)nc1 (single isomer, unassigned) [Compound A24a]
2650 nM | 4480 nM | CC[C@@H]1CN(c2c(F)c(=O)n(C)c3cc(CC#N)nn23)[C@@H](C)CN1C(C)c1ccc(C2CC2)nc1 (single isomer, unassigned) [Compound A24b]
21 nM | 233 nM | CC[C@@H]1CN(c2cc(=O)n(C)c3cc(CC#N)nn23)[C@@H](C)CN1C(C)c1ccc2ncsc2c1 (single isomer, unassigned) [Compound A28a]
2220 nM | 1470 nM | CC[C@@H]1CN(c2cc(=O)n(C)c3cc(CC#N)nn23)[C@@H](C)CN1C(C)c1ccc2ncsc2c1 (single isomer, unassigned) [Compound A28b]
42 nM | 212 nM | CC[C@@H]1CN(c2cc(=O)n(C)c3cc(CC#N)nn23)[C@@H](C)CN1[C@@H](C)c1ccc2ncsc2n1 (single isomer, unassigned) [Compound A29a]
1540 nM | 1590 nM | CC[C@@H]1CN(c2cc(=O)n(C)c3cc(CC#N)nn23)[C@@H](C)CN1[C@H](C)c1ccc2ncsc2n1 (single isomer, unassigned) [Compound A29b]
> 10000 nM | > 10000 nM | CC(c1ccc2nccnc2c1)N1CCC(c2cc(=O)n(C)c3cc(CC#N)nn23)C[C@H]1C (single isomer, unassigned) [Compound A33a]
5710 nM | > 150000 nM | CC(c1ccc2nccnc2c1)N1CCC(c2cc(=O)n(C)c3cc(CC#N)nn23)C[C@@H]1C (single isomer, unassigned) [Compound A34a]
> 10000 nM | > 150000 nM | CC(c1ccc2nccnc2c1)N1CCC(c2cc(=O)n(C)c3cc(CC#N)nn23)C[C@@H]1C (single isomer, unassigned) [Compound A34b]
4690 nM | 2260 nM | CC[C@H]1CN(C(C)c2ccc3nc(C)sc3n2)[C@H](CC)CN1c1cc(=O)n(C)c2cc(CC#N)nn12 (single isomer, unassigned) [Compound A35a]
31 nM | 72 nM | CC[C@H]1CN(C(C)c2ccc3nc(C)sc3n2)[C@H](CC)CN1c1cc(=O)n(C)c2cc(CC#N)nn12 (single isomer, unassigned) [Compound A35b]
1580 nM | 200 nM | CC[C@H]1CN(C(C)c2ccc3cc(C(F)F)sc3n2)[C@H](CC)CN1c1cc(=O)n(C)c2cc(CC#N)nn12 (single isomer, unassigned) [Compound A37a]

IC50 (DGKζ) | IC50 (DGKα) | Structure (SMILES)
83 nM | 24 nM | CC[C@H]1CN(C(C)c2ccc3cc(C(F)F)sc3n2)[C@H](CC)CN1c1cc(=O)n(C)c2cc(CC#N)nn12 (single isomer, unassigned) [Compound A37b]
> 10000 nM | 3880 nM | CC[C@H]1CN(C(C)c2ccc3nc(C)cn3n2)[C@H](CC)CN1c1cc(=O)n(C)c2cc(CC#N)nn12 (single isomer, unassigned) [Compound A38a]
469 nM | 205 nM | CC[C@H]1CN(C(C)c2ccc3nc(C)cn3n2)[C@H](CC)CN1c1cc(=O)n(C)c2cc(CC#N)nn12 (single isomer, unassigned) [Compound A38b]
> 10000 nM | 585 nM | CC[C@H]1CN(C(C)c2ccn3nccc3n2)[C@H](CC)CN1c1cc(=O)n(C)c2cc(CC#N)nn12 (single isomer, unassigned) [Compound A39a]
104 nM | 52 nM | CC[C@H]1CN(C(C)c2ccn3nccc3n2)[C@H](CC)CN1c1cc(=O)n(C)c2cc(CC#N)nn12 (single isomer, unassigned) [Compound A39b]
5770 nM | 1540 nM | CC[C@H]1CN(C(C)c2ccn3nc(C)cc3n2)[C@H](CC)CN1c1cc(=O)n(C)c2cc(CC#N)nn12 (single isomer, unassigned) [Compound A40a]
53 nM | 61 nM | CC[C@H]1CN(C(C)c2ccn3nc(C)cc3n2)[C@H](CC)CN1c1cc(=O)n(C)c2cc(CC#N)nn12 (single isomer, unassigned) [Compound A40b]
80 nM | 25 nM | CC[C@H]1CN(C(C)c2ccn3nc(F)cc3n2)[C@H](CC)CN1c1cc(=O)n(C)c2cc(CC#N)nn12 (single isomer, unassigned) [Compound A41a]
4560 nM | 1590 nM | CC[C@H]1CN(C(C)c2ccn3nc(F)cc3n2)[C@H](CC)CN1c1cc(=O)n(C)c2cc(CC#N)nn12 (single isomer, unassigned) [Compound A41b]
> 10000 nM | 1880 nM | CC[C@H]1CN(C(C)c2ccc3nc(C)cn3n2)[C@H](CC)CN1c1nc(=O)n(C)c2cc(CC#N)nn12 (single isomer, unassigned) [Compound A45a]
116 nM | 66 nM | CC[C@H]1CN(C(C)c2ccc3nc(C)cn3n2)[C@H](CC)CN1c1nc(=O)n(C)c2cc(CC#N)nn12 (single isomer, unassigned) [Compound A45b]
> 10000 nM | 5330 nM | CC[C@H]1CN(C(C)c2ccc3nc(C)c(F)n3n2)[C@H](CC)CN1c1nc(=O)n(C)c2cc(CC#N)nn12 (single isomer, unassigned) [Compound A48a]
24 nM | 63 nM | CC[C@H]1CN(C(C)c2ccc3nc(C)c(F)n3n2)[C@H](CC)CN1c1nc(=O)n(C)c2cc(CC#N)nn12 (single isomer, unassigned) [Compound A48b]
20 nM | 114 nM | CC[C@H]1CN(C(C)c2ccc3nc(C)sc3c2)[C@H](CC)CN1c1nc(=O)n(C)c2cc(CC#N)nn12 (single isomer, unassigned) [Compound A53a]
552 nM | 947 nM | CC[C@H]1CN(C(C)c2ccc3nc(C)sc3c2)[C@H](CC)CN1c1nc(=O)n(C)c2cc(CC#N)nn12 (single isomer, unassigned) [Compound A53b]
4900 nM | 485 nM | CC[C@H]1CN(C(C)c2ccn3nc(C4CC4)cc3n2)[C@H](CC)CN1c1nc(=O)n(C)c2cc(CC#N)nn12 (single isomer, unassigned) [Compound A54a]
19 nM | 69 nM | CC[C@H]1CN(C(C)c2ccn3nc(C4CC4)cc3n2)[C@H](CC)CN1c1nc(=O)n(C)c2cc(CC#N)nn12 (single isomer, unassigned) [Compound A54b]
1000 nM | 810 nM | CC(c1ccc2nccnc2c1)N1C[C@H](C)N(c2cc(=O)n(C)c3cc(C#N)nn23)C[C@H]1C (stereo partly drawn) [Compound A1, 7-((2S,5R)-2,5-dimethyl-4-(1-(quinoxalin-6-yl)ethyl)piperazin-1-yl)-4-methyl-5-oxo-4,5-dihydropyrazolo[1,5-a]pyrimidine-2-carbonitrile]

Source: patent US20250353858A1, “CONDENSED HETEROCYCLIC COMPOUNDS AS INHIBITOR OF DIACYLGLYCEROL KINASES” (BEONE MEDICINES I GMBH, priority 2023, published 2025)
